Measured values: patent publication US8202834B2, “Fat regulation” (FibroGen, Inc., priority 2002, dated 2012)

Tests used:
leptin = test: Leptin secretion by preadipocytes in differentiation media; format: cell-based, human; details: 25 or 50 μM, up to 12 days, vs vehicle, FIG. 1B
Procedure: In a separate experiment, preadipocytes were plated in 24 well plates at 45,000 cells per well and cultured for 3 days in preadipocyte media (Zen-Bio). The media was then changed to differentiation media (Zen-Bio) and cells were treated with either vehicle control (0.5% DMSO) or compound B at 25 or 50 μM for up to 12 days. Half of the culture media was exchanged every 3 days and cell-free culture supernatants were generated and analyzed for levels of leptin secretion using a QUANTIKINE immunoassay (R&D Systems) according to the manufacturer's instructions.

DEC1/Stra13 [1] = test: DEC1/Stra13 expression time course in liver after oral gavage; format: in vivo; details: mouse liver, 100 mg/kg oral gavage, 4-72 h; FIG. 3A
Procedure: (§1) The ability of the present compounds and methods to regulate fat metabolism, in particular, to increase expression of factors involved in fat transport, utilization, and storage, was analyzed as follows. To determine gene induction patterns over time, twenty four Swiss Webster male mice (30-32 g) were obtained from Simonsen, Inc. and treated by oral gavage with a 4 ml/kg volume of either 0.5% carboxymethyl cellulose (CMC; Sigma-Aldrich, St. Louis Mo.) (0 mg/kg) or […] compound B (25 mg/ml in 0.5% CMC) (100 mg/kg). At 4, 8, 16, 24, 48, or 72 hours after the final dose, animals were anesthetized with isoflurane. The mice were then sacrificed and tissue samples of kidney, liver, brain, lung, and heart were isolated and stored in RNALATER solution (Ambion) at −80° C.
To further investigate the effect of the methods and compounds of the present invention on expression of genes associated with fat metabolism and adipogenesis, the experiments performed as described in Example 3 above were analyzed for specific adipogenic factors. […] DEC1/Stra13 is known to repress expression of PPAR-γ2 nuclear hormone receptor, which is necessary for adipocyte differentiation. […]

DEC1/Stra13 [2] = test: DEC1/Stra13 expression in tissues after 4 days of oral dosing; format: in vivo, mouse; details: oral gavage once per day for 4 days, FIG. 3B
Procedure: (§2) To further investigate the effect of the methods and compounds of the present invention on expression of adipogenic factors, twelve Swiss Webster male mice (30-32 g) obtained from Simonsen, Inc. were treated by oral gavage once per day for 4 days with 4 ml/kg volume of either 0.5% CMC (0 mg/kg/day), 25 mg/ml compound D in 0.5% CMC (100 mg/kg/day), or 7.5 mg/ml and 25 mg/ml of compound B in 0.5% CMC (30 and 100 mg/kg/day, respectively). Four hours after the final dose, animals were anesthetized, sacrificed, and approximately 150 mg of adipose, heart, kidney, liver, lung, and muscle were isolated and stored in RNALATER solution (Ambion) at −20° C. RNA isolation and gene expression analysis was performed as described in Example 3 above.

PPAR-γ = PPAR-γ expression in tissue after 4 days of oral dosing; format: in vivo, mouse; details: cardiac tissue; oral gavage once per day for 4 days; FIG. 3C
Procedure: as §2

HIF-1α = HIF-1α in nuclear fractions, TRANSAM HIF-1 ELISA; format: cell-based, human; details: 293A and Hep3B cells, vs vehicle; FIG. 8B
Text: Compounds of the present invention for use in the present methods stabilize HIFα, inhibit HIF hydroxylase activity and/or HIFα hydroxylation, etc. Thus, compounds can be identified, e.g., by their ability to stabilize HIFα. Stabilization of HIFα using compounds and methods of the present invention was examined as follows. Human cells derived from adenovirus-transformed fetal kidney epithelium (293A), cervical epithelial adenocarcinoma (HeLa), hepatocellular carcinoma (Hep3B), squamous carcinoma (SSC-25), and lung fibroblast (HLF) tissues (see, e.g., American Type Culture Collection, Manassas Va.; and Qbiogene, Carlsbad Calif.) were separately seeded into 100 mm culture dishes and grown at 37° C., 20% O2, 5% CO2 in media as follows: HeLa cells in Dulbecco's Modification of Eagle's Medium (DMEM), 2% fetal bovine serum (FBS); HLF cells in DMEM, 10% FBS; 293A cells in DMEM, 5% FBS; and Hep3B cells in Minimal Essential Medium (MEM), Earle's BSS (Mediatech Inc., Herndon Va.), 2 mM L-glutamine, 0.1 mM non-essential amino acids, 1 mM sodium pyruvate, 10% FBS. When cell layers reached confluence, the media was replaced with OPTI-MEM media (Invitrogen Life Technologies, Carlsbad Calif.) and cell layers were incubated for approximately 24 hours in 20% O2, 5% CO2 at 37° C. A compound of the invention (compound B, D, F, G, or H) or vehicle control (0.5 to 1% DMSO) was then added to existing medium, and incubation was continued overnight.
Alternatively, nuclear fractions were prepared using a nuclear extract kit (Active Motif, Carlsbad Calif.) and were analyzed for HIF-1α using a TRANSAM HIF-1 ELISA kit (Active Motif) according to the manufacturer's instructions.

aldolase = test: Aldolase expression in 293A cells, Western blot; format: cell-based, human
Procedure: In a further analysis of the methods and compounds effect on glucose regulation, human 293A cells were plated confluent in 35 mm culture dishes and cultured for 1 day at 37° C., 10% CO2 in DMEM containing 5% FBS and 1% penicillin-streptomycin. The media was changed to OPTI-MEM media (Invitrogen Life Technologies) and incubation was continued for an additional 18 to 24 hours. Vehicle control or compound B was then added to the media and cells were incubated for an additional 24, 48 or 72 hours. Plates were placed on ice, culture supernatant was removed, and lysis buffer-1 (LB-1: 10 mM Tris pH 7.4, 1 mM EDTA, 150 mM sodium chloride, 0.5% IGEPAL) was added. Cell lysates were harvested, cytosolic fractions were collected, and cytosolic proteins were separated using SDS-PAGE as described above. After separation, the proteins were transferred to a PVDF membrane at 400 mA for 1.5 hours at 4° C. The membrane was incubated in blocking buffer for 2 hours or overnight and washed once with T-TBS prior to addition of anti-aldolase antibody diluted to working concentration in blocking buffer. After overnight incubation with gentle agitation at 4° C., membranes were washed 4 times with T-TBS, followed by incubation for one hour at room temperature with conjugated secondary antibody diluted in blocking buffer. […]

[3] = test system: PFK-P, PFK-L, enolase-1, GluT-1, lactate dehydrogenase-1, aldolase-1, hexokinase-1; test: Expression of glucose regulation genes in kidney, liver and lung after oral gavage; format: in vivo; details: mouse kidney, liver, lung; 100 mg/kg oral gavage; FIGS. 10A-10C
Procedure: as §1
In the time course, most mRNA levels peaked early following administration of compound, then returned to control levels after 24 to 48 hours. […] These differences relate, in part, to the different degree to which glycolytic activity provides a critical source of energy for the respective tissue, especially during times of stress.

In the case of `O=C(O)CNC(=O)c1nc(Cl)c2ccccc2c1O` [compound B, [(1-Chloro-4-hydroxy-isoquinoline-3-carbonyl)-amino]-acetic acid], the leptin secretion (leptin) is reported as “dose-dependent increase in leptin secretion”, the “expression of DEC1/Stra13” value (DEC1/Stra13 [1]) is reported as “initially increased” and the DEC1/Stra13 expression (DEC1/Stra13 [2]; adipose, kidney, liver and muscle, 4 h after final dose) is reported as “increased DEC1/Stra13 expression”. For the same molecule, the DEC1/Stra13 expression (DEC1/Stra13 [2]; lung and heart) was “increased DEC1/Stra13 expression”, the PPAR-γ expression (PPAR-γ) was “decreased PPAR-γ expression” and the “stabilization and accumulation of HIFα” value (HIF-1α) was “stabilization and accumulation of HIFα”. The aldolase expression (aldolase; 293A cells, 24, 48 and 72 hours, FIG. 9B) was “increased over time”, the β-tubulin expression (aldolase; 293A cells, specificity control) was “no increases” and the “expression of genes encoding enzymes involved in glucose regulation” value [3] was “increased in a coordinated fashion”.
